This note sets out measurements from patent US12275732B2, “Cyclic compounds as receptor modulating therapeutics and methods and uses thereof” (Bionomics Limited, priority 2018, dated 2025).

The nature of this data set: A2B permeability (Papp) in MDCK-MDR1 cell monolayers. The class given is in vitro ADME. The settings on record: dog, MDCK-MDR1 monolayer, apical to basolateral (A-B), 10 μM test compound, HBSS pH 7.4, duplicate. The procedure: Permeability Data for Compounds was Collected Using the Following Experimental Procedure:
MDCK-MDR1 cells obtained from the NIH (Rockville, Md., USA) are used between passage numbers 6-30. Cells are seeded onto Millipore Multiscreen Transwell plates at 3.4×10^5 cells/cm2. The cells are cultured in DMEM and media is changed on day 3. On day 4 the permeability study is performed. Cell culture and assay incubations are carried out at 37° C. in an atmosphere of 5% CO2 with a relative humidity of 95%. On the day of the assay, the monolayers are prepared by rinsing both apical and basolateral surfaces twice with Hanks Balanced Salt Solution (HBSS) at the desired pH warmed to 37° C. Cells are then incubated with HBSS at the desired pH in both apical and basolateral compartments for 40 min to stabilise physiological parameters.
The dosing solutions are prepared by diluting test compound with assay buffer to give a final test compound concentration of 10 μM (final DMSO concentration of 1% v/v). The fluorescent integrity marker lucifer yellow is also included in the dosing solution. Analytical standards are prepared from test compound DMSO dilutions and transferred to buffer, maintaining a 1% v/v DMSO concentration.
Typical assay buffer is composed of supplemented HBSS pH 7.4 but a range of other buffers and pH values can be used.
For assessment of A-B permeability, HBSS is removed from the apical compartment and replaced with test compound dosing solution. The apical compartment insert is then placed into a companion plate containing fresh buffer (containing 1% v/v DMSO). For assessment of B-A permeability, HBSS is removed from the companion plate and replaced with test compound dosing solution. Fresh buffer (containing 1% v/v DMSO) is added to the apical compartment insert, which is then placed into the companion plate.
At 60 min the apical compartment inserts and the companion plates are separated and apical and basolateral samples diluted for analysis.
Test compound permeability is assessed in duplicate. Compounds of known permeability characteristics are run as controls on each assay plate.
Test and control compounds are quantified by LC-MS/MS cassette analysis using a 7-point calibration with appropriate dilution of the samples. Cyprotex generic analytical conditions are used. The starting concentration (CO) is determined from the dosing solution and the experimental recovery calculated from CO and both apical and basolateral compartment concentrations.
The integrity of the monolayer throughout the experiment is checked by monitoring lucifer yellow permeation using fluorimetric analysis. Lucifer yellow permeation is high if monolayers have been damaged. If a lucifer yellow Papp value is above a pre-defined threshold in one well, but the derived Papp result for test compound or marker compound in that well is qualitatively similar to that determined in the remaining replicate well (within the lucifer yellow threshold) then, based upon the scientific judgment of the responsible scientist, the cell monolayer may be considered acceptable. If this is not the case, then the result from the affected monolayer is excluded and an n=1 result is reported, or the compound may be retested. If lucifer yellow Papp values are above the threshold in both replicate wells for a test compound, the compound is re-tested. If this re-occurs upon repeat in both wells then toxicity or inherent fluorescence of the test compound is assumed. No further experiments are performed in this instance.
The permeability coefficient (Papp) for each compound is calculated from the following equation: […]
Where dQ/dt is the rate of permeation of the drug across the cells, CO is the donor compartment concentration at time zero and A is the area of the cell monolayer. C0 is obtained from analysis of the dosing solution.
Take `CCn1cc(C(=O)N2CCOCC2)c(=O)c2cc(OC3Cc4ccccc4C3)cnc21` [Example 1, 1-Ethyl-6-indan-2-yloxy-3-(morpholine-4-carbonyl)-1,8-naphthyridin-4-one]: the Papp A→B at 60 min, 10 μM amounted to 2.19 ×10⁻⁶ cm/s.
Then `CCn1cc(C(=O)N2CCO[C@H](C)C2)c(=O)c2cc(OC3Cc4ccccc4C3)cnc21` [Example 2, 1-Ethyl-6-indan-2-yloxy-3-[(2R)-2-methylmorpholine-4-carbonyl]-1,8-naphthyridin-4-one], with 2.56 ×10⁻⁶ cm/s; and `CCn1cc(C(=O)N2CCOC(C)(C)C2)c(=O)c2cc(OC3Cc4ccccc4C3)cnc21` [Example 4, 3-(2,2-dimethylmorpholine-4-carbonyl)-1-ethyl-6-indan-2-yloxy-1,8-naphthyridin-4-one], with 1.26 ×10⁻⁶ cm/s.
Then `CCn1cc(C(=O)N2C[C@@H](C)O[C@@H](C)C2)c(=O)c2cc(OC3Cc4ccccc4C3)cnc21` [Example 5, 3-[(2R,6S)-2,6-dimethylmorpholine-4-carbonyl]-1-ethyl-6-indan-2-yloxy-1,8-naphthyridin-4-one], with 3.41 ×10⁻⁶ cm/s; and `CCn1cc(C(=O)N2C[C@H](C)O[C@@H](C)C2)c(=O)c2cc(OC3Cc4ccccc4C3)cnc21` [Example 6, 3-[(2S,6S)-2,6-dimethylmorpholine-4-carbonyl]-1-ethyl-6-indan-2-yloxy-1,8-naphthyridin-4-one], with 1.7 ×10⁻⁶ cm/s; and `CCn1cc(C(=O)N2C[C@@H](C)O[C@H](C)C2)c(=O)c2cc(OC3Cc4ccccc4C3)cnc21` [Example 7, 3-[(2R,6R)-2,6-dimethylmorpholine-4-carbonyl]-1-ethyl-6-indan-2-yloxy-1,8-naphthyridin-4-one], with 1.79 ×10⁻⁶ cm/s.
The compound `CCn1cc(C(=O)N2CC(C)(C)OC(C)(C)C2)c(=O)c2cc(OC3Cc4ccccc4C3)cnc21` [Example 8, 1-Ethyl-6-indan-2-yloxy-3-(2,2,6,6-tetramethylmorpholine-4-carbonyl)-1,8-naphthyridin-4-one] yielded a Papp A→B at 60 min, 10 μM of 2.65 ×10⁻⁶ cm/s.
The figure for `CCn1cc(C(=O)N2[C@H](C)COC[C@@H]2C)c(=O)c2cc(OC3Cc4ccccc4C3)cnc21` [Example 10, 3-[(3R,5S)-3,5-dimethylmorpholine-4-carbonyl]-1-ethyl-6-indan-2-yloxy-1,8-naphthyridin-4-one] is 1.99 ×10⁻⁶ cm/s.
Then `CCn1cc(C(=O)N2[C@H](C)COC[C@H]2C)c(=O)c2cc(OC3Cc4ccccc4C3)cnc21` [Example 11, 3-[(3R,5R)-3,5-dimethylmorpholine-4-carbonyl]-1-ethyl-6-indan-2-yloxy-1,8-naphthyridin-4-one], with 3.83 ×10⁻⁶ cm/s; and `CCn1cc(C(=O)N2C3COCC2C3)c(=O)c2cc(OC3Cc4ccccc4C3)cnc21` [Example 16, 1-Ethyl-6-indan-2-yloxy-3-(3-oxa-6-azabicyclo[3.1.1]heptane-6-carbonyl)-1,8-naphthyridin-4-one], with 2.06 ×10⁻⁶ cm/s.
Then `CCn1cc(C(=O)N2C[C@H]3C[C@@H]2CO3)c(=O)c2cc(OC3Cc4ccccc4C3)cnc21` [Example 17, 1-Ethyl-6-indan-2-yloxy-3-[(1R,4R)-2-oxa-5-azabicyclo[2.2.1]heptane-5-carbonyl]-1,8-naphthyridin-4-one], with 0.87 ×10⁻⁶ cm/s.
`CCn1cc(C(=O)N2C3CCC2COC3)c(=O)c2cc(OC3Cc4ccccc4C3)cnc21` [Example 18, 1-Ethyl-6-indan-2-yloxy-3-(3-oxa-8-azabicyclo[3.2.1]octane-8-carbonyl)-1,8-naphthyridin-4-one]: the Papp A→B at 60 min, 10 μM came to 1.41 ×10⁻⁶ cm/s.
Then `CCn1cc(C(=O)N2CC3CCC(C2)O3)c(=O)c2cc(OC3Cc4ccccc4C3)cnc21` [Example 19, 1-Ethyl-6-indan-2-yloxy-3-(8-oxa-3-azabicyclo[3.2.1]octane-3-carbonyl)-1,8-naphthyridin-4-one], with 1.79 ×10⁻⁶ cm/s; and `CCn1cc(C(=O)N2C3CCCC2COC3)c(=O)c2cc(OC3Cc4ccccc4C3)cnc21` [Example 20, 1-Ethyl-6-indan-2-yloxy-3-(3-oxa-9-azabicyclo[3.3.1]nonane-9-carbonyl)-1,8-naphthyridin-4-one], with 2.01 ×10⁻⁶ cm/s.
On to `CCn1cc(C(=O)N2CC3(CCOCC3)C2)c(=O)c2cc(OC3Cc4ccccc4C3)cnc21` [Example 23, 1-Ethyl-6-indan-2-yloxy-3-(7-oxa-2-azaspiro[3.5]nonane-2-carbonyl)-1,8-naphthyridin-4-one], for which the apical-to-basolateral permeability (Papp A→B) at 60 min, 10 μM came out at 1.24 ×10⁻⁶ cm/s. Compared with the last compound, the Papp A→B at 60 min, 10 μM is about 1.6-fold lower.
Then `CCn1cc(C(=O)N2CCOCC2)c(=O)c2cc(OC3Cc4ccccc4C3)ncc21` [Example 26, 1-Ethyl-6-indan-2-yloxy-3-(morpholine-4-carbonyl)-1,7-naphthyridin-4-one], with 1.56 ×10⁻⁶ cm/s.
Regarding `CCn1cc(C(=O)N2CCOCC2)c(=O)c2cc(OC3Cc4ccccc4C3)nnc21` [Example 52, 8-Ethyl-3-indan-2-yloxy-6-(morpholine-4-carbonyl)pyrido[2,3-c]pyridazin-5-one], the Papp A→B at 60 min, 10 μM stood at 4.78 ×10⁻⁶ cm/s. This Papp A→B at 60 min, 10 μM is about 3.1-fold higher than that of the compound before.
Then `CCn1cc(C(=O)N2CC3CCC(C2)O3)c(=O)c2cc(OC3Cc4ccccc4C3)nnc21` [Example 63, 8-Ethyl-3-indan-2-yloxy-6-(8-oxa-3-azabicyclo[3.2.1]octane-3-carbonyl)pyrido[2,3-c]pyridazin-5-one], with 1.55 ×10⁻⁶ cm/s; and `CCn1cc(C(=O)N2CC3COCC(C3)C2)c(=O)c2cc(OC3Cc4ccccc4C3)nnc21` [Example 65, 8-Ethyl-3-indan-2-yloxy-6-(3-oxa-7-azabicyclo[3.3.1]nonane-7-carbonyl)pyrido[2,3-c]pyridazin-5-one], with 0.98 ×10⁻⁶ cm/s.

In general, Papp A→B refers to how fast a substance crosses the layer from the apical side. Low readings indicate poor permeation, high ones ready permeation.
